Consider eight compounds from patent US20210323976A1, “HETEROARYL COMPOUNDS FOR KINASE INHIBITION” (ARIAD Pharmaceuticals, Inc., priority 2015, published 2021).

The structures appear in SMILES notation.

Assay [1] has as its target T1, EGFR exon 19 deletion (E746-A750) and T790M mutation (Homo sapiens, UniProt P00533, DEL746-750/T790M).
T1 construct: expressed in transfected cells; host or cells: Ba/F3 (murine pro-B) cells, lentiviral transduction with pLVX-IRES puro
In words: Ba/F3-EGFR-Del/T790M cell anti-proliferation assay (MTS). The format is cell-based. To be noted: Ba/F3-EGFR-Del/T790M cells, 72 h, MTS signal. An excerpt:
A compound's ability in selectively inhibiting EGFR exon 19 deletion and T790M concurrent mutations can be assessed using Ba/F3 cells, a murine pro-B cell line, which have been transduced with EGFR exon 19 deletion and T790M mutation. An expression vector, pLVX-IRES puro (Clontech) coding for human EGFR E746-A750 deletion and T790M Mutation, was transfected into HEK293 cells by the Trans-Lentiviral ORF Packaging System (Thermo Scientific), to produce virus encoding EGFR exon 19 deletion and T790M mutations. Ba/F3 (DSMZ) cells maintained in RPM11640 medium supplemented with 10% fetal bovine serum, 200 pM L-glutamine/200 μg/mL penicillin/200 μg/mL streptomycin (Life Technology) and 10 ng/mL IL-3 (R&D system), were infected by EGFR E746-A750 deletion and T790M Mutation virus and subsequently selected by puromycin (Life Technology) selection and IL-3 depletion. Ba/F3 cells expressing EGFR E746-A750 deletion and T790M Mutation (named Ba/F3-EGFR-Del/T790M) can proliferate in the absence of IL-3. The anti-proliferative activity of compounds was determined as follows: BaF3-EGFR-Del/T790M cells seeded in 96 well plates (2500 cells/well) were treated with test compound (dissolved in DMSO) at a series of concentrations (4-fold dilution, top concentration: 10,000 nM). The plates were incubated for 72 h in a 37° C. incubator with 5% CO2, and the number of viable cells in each well were measured indirectly by CellTiter 96® Aqueous One Solution Cell Proliferation Assay (Promega; this assay is a colorimetric method for determining the number of viable cells through measurement of their metabolic activity by detection of enzymatic conversion of tetrazolium salts into blue formazan derivatives). Reagent (20 pL) was added into each well, and the plates were returned to the incubator for 2 h. The absorbance in each well was then measured at 490 nm using an Envision plate reader (Perkin Elmer). IC50 values were calculated by determining the concentration of compound required to decrease the MTS signal by 50% comparing to the DMSO control in best-fit curves using Microsoft XLfit software or Accelrys Pipeline Pilot.

Assay [2] has as its target EGFR exon 20 NPG insertion (H773_V774insNPG) (Homo sapiens, UniProt P00533, cells depend on it, form not given). Kind of assay: Ba/F3-EGFR-Exon20-NPG cell anti-proliferation assay (MTS, CellTiter 96 AQueous One). The format is cell-based. The conditions noted are these: 72 h, MTS signal. An excerpt: A compound's ability in selectively inhibiting EGFR exon 20 insertion mutations can be assessed using Ba/F3 cells, a murine pro-B cell line, which have been transduced with EGFR exon 20 insertions. An expression vector, pLVX-IRES puro (Clontech) coding for human EGFR exon 20 insertions NPG (H773_V774insNPG) or ASV (V769_D770insASV), was transfected into HEK293 cells by the Trans-Lentiviral ORF Packaging System (Thermo Scientific), to produce virus encoding EGFR exon 20 insertions. Ba/F3 (DSMZ) cells maintained in RPM11640 medium supplemented with 10% fetal bovine serum, 200 pM L-glutamine/200 µg/mL penicillin/200 µg/mL streptomycin (Life Technology) and 10 ng/mL IL-3 (R&D system), were infected by EGFR Exon20 virus and subsequently selected by puromycin (Life Technology) selection and IL-3 depletion. Ba/F3 cells expressing EGFR exon 20 insertions (named Ba/F3-EGFR-Exon20-NPG or Ba/F3-EGFR-Exon20-ASV) can proliferate in the absence of IL-3. The anti-proliferative activity of compounds were determined as follows: BaF3-EGFR-Exon20 cells (NPG or ASV) seeded in 96 well plates (2500 cells/well) were treated with test compound (dissolved in DMSO) at a series of concentrations (4-fold dilution, top concentration: 10,000 nM). The plates were incubated for 72 h in a 37° C. incubator with 5% CO2, and the number of viable cells in each well were measured indirectly by CellTiter 96® Aqueous One Solution Cell Proliferation Assay (Promega) This assay is a colorimetric method for determining the number of viable cells through measurement of their metabolic activity by detection of enzymatic conversion of tetrazolium salts into blue formazan derivatives. Reagent (20 pL) was added into each well, and the plates were returned to the incubator for 2 h. The absorbance in each well was then measured at 490 nm using an Envision plate reader (Perkin Elmer). IC50 values were calculated by determining the concentration of compound required to decrease the MTS signal by 50% comparing to the DMSO control in best-fit curves using Microsoft XLfit software or Accelrys Pipeline Pilot.

T1 sequence (P00533 with tags, fused parts or gaps DEL746-750/T790M): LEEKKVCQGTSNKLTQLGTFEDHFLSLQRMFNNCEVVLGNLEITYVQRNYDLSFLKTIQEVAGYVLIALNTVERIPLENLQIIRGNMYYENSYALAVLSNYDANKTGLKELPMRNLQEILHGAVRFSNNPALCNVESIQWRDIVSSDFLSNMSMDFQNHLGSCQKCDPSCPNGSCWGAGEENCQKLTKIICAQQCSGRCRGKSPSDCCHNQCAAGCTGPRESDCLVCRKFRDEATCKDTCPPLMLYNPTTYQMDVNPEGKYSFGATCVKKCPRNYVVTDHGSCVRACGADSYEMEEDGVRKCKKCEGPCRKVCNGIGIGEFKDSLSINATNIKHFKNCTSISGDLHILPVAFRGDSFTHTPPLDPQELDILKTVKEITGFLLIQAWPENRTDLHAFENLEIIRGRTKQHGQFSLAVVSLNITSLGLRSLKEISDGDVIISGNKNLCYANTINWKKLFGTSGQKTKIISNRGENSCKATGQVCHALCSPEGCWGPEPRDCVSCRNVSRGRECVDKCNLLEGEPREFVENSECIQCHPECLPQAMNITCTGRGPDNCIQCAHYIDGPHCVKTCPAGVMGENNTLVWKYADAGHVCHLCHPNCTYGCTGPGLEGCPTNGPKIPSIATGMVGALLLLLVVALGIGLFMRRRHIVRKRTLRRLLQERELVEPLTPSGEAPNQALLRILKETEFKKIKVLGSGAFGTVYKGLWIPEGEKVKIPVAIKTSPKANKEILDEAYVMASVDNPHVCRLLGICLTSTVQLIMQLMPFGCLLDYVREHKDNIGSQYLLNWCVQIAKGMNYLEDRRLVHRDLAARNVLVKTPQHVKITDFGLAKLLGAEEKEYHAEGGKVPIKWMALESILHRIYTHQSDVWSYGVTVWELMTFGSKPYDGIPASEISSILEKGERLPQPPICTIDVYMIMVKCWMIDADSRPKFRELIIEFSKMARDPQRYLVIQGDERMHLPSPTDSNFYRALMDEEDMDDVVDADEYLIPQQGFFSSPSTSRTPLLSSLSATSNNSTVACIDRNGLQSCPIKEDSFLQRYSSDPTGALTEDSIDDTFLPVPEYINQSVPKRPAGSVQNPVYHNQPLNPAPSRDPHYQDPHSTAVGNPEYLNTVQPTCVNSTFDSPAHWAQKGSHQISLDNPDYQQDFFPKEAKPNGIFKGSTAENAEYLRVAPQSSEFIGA
Sequence of EGFR exon 20 NPG insertion (H773_V774insNPG) (P00533 with tags, fused parts or gaps INS772GNP, form open): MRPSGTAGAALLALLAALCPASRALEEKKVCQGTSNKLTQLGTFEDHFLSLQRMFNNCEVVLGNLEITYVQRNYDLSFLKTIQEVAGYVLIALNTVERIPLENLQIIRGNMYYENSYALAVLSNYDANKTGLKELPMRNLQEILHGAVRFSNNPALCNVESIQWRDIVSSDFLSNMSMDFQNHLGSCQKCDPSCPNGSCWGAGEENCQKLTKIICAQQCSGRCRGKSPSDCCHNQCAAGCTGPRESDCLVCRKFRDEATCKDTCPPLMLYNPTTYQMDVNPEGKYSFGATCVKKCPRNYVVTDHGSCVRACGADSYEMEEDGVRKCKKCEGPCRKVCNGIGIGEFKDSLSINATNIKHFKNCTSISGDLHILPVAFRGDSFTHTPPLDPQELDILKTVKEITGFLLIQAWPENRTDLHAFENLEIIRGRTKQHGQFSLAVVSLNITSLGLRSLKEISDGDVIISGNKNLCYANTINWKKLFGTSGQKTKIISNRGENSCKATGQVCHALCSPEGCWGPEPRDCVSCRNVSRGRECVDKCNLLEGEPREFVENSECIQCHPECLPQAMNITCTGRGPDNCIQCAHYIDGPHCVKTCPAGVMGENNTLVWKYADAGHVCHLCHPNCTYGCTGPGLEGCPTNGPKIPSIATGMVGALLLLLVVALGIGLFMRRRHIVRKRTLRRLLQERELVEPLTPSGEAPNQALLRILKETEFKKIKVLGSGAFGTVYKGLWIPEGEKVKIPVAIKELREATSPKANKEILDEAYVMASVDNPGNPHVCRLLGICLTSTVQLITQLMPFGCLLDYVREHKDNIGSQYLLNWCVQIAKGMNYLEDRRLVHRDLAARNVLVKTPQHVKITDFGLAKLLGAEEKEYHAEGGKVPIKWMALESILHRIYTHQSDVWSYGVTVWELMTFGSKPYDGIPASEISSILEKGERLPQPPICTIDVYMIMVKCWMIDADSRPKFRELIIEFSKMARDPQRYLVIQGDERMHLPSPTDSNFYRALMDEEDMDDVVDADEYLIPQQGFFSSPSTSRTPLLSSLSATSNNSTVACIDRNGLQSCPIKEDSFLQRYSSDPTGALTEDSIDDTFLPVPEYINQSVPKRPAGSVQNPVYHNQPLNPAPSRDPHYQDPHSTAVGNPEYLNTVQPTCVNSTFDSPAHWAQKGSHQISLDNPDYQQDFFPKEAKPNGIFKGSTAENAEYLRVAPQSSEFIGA

Turning to `C=CC(=O)Nc1cc(Nc2nccc(-c3c4n(c5ccccc35)CCOC4)n2)c(OC)cc1N(C)CCN(C)C` [Example 1, N-(5-((4-(3,4-dihydro-1H-[1,4]oxazino[4,3-a]indol-10-yl)pyrimidin-2-yl)amino)-2-((2-(dimethylamino)ethyl)(methyl)amino)-4-methoxyphenyl)acrylamide], in assay [1], the “EGFR exon 19 deletion and T790M mutation IC50” value is “A (Group A compounds have an IC50 value for the indicated mutant below about 100 nM)”. For the same compound, the IC50 in assay [2] is under 100 nM.

For the compound `C=CC(=O)Nc1cc(Nc2nccc(-c3c4n(c5ccccc35)CCN(C)C4=O)n2)c(OC)cc1N(C)CCN(C)C` [Example 2, N-(2-((2-(dimethylamino)ethyl)(methyl)amino)-4-methoxy-5-((4-(2-methyl-1-oxo-1,2,3,4-tetrahydropyrazino[1,2-a]indol-10-yl)pyrimidin-2-yl)amino)phenyl)acrylamide], the “EGFR exon 19 deletion and T790M mutation IC50” value in assay [1] is “A (Group A compounds have an IC50 value for the indicated mutant below about 100 nM)”.

As to `C=CC(=O)Nc1cc(Nc2nccc(-c3c4n(c5ccccc35)CC(O)CC4)n2)c(OC)cc1N(C)CCN(C)C` (stereo not shown) [Example 3, N-(2-((2-(dimethylamino)ethyl)(methyl)amino)-5-((4-(7-hydroxy-6,7,8,9-tetrahydropyrido[1,2-a]indol-10-yl)pyrimidin-2-yl)amino)-4-methoxyphenyl)acrylamide], in assay [1], the “EGFR exon 19 deletion and T790M mutation IC50” value is given as “A (Group A compounds have an IC50 value for the indicated mutant below about 100 nM)”. Also, the IC50 in assay [2] is under 100 nM.

Regarding `C=CC(=O)Nc1cc(Nc2nccc(-c3c4n(c5ccccc35)CC3OC(C)(C)OC3C4)n2)c(OC)cc1N(C)CCN(C)C` (stereo not drawn) [Example 4, N-(5-((4-(cis-2,2-dimethyl-3a,4,11,11a-tetrahydro-[1,3]dioxolo[4′,5′:4,5]pyrido[1,2-a]indol-10-yl)pyrimidin-2-yl)amino)-2-((2-(dimethylamino)ethyl)(methyl)amino)-4-methoxyphenyl)acrylamide], the “EGFR exon 19 deletion and T790M mutation IC50” value in assay [1] is given as “A (Group A compounds have an IC50 value for the indicated mutant below about 100 nM)”.

On to `C=CC(=O)Nc1cc(Nc2nccc(-c3c4n(c5ccccc35)CCCC4)n2)c(OC)cc1N(C)CCN(C)C` [Example 5, N-(2-((2-(dimethylamino)ethyl)(methyl)amino)-4-methoxy-5-((4-(6,7,8,9-tetrahydropyrido[1,2-a]indol-10-yl)pyrimidin-2-yl)amino)phenyl)acrylamide], for which the “EGFR exon 19 deletion and T790M mutation IC50” value in assay [1] was “A (Group A compounds have an IC50 value for the indicated mutant below about 100 nM)”.

Take `C=CC(=O)Nc1cc(Nc2nccc(-c3c4n(c5ccccc35)CC(O)C(O)C4)n2)c(OC)cc1N(C)CCN(C)C` (stereo not drawn) [Example 6, N-(5-((4-(cis-7,8-dihydroxy-6,7,8,9-tetrahydropyrido[1,2-a]indol-10-yl)pyrimidin-2-yl)amino)-2-((2-(dimethylamino)ethyl)(methyl)amino)-4-methoxyphenyl)acrylamide]: the “EGFR exon 19 deletion and T790M mutation IC50” value in assay [1] was “A (Group A compounds have an IC50 value for the indicated mutant below about 100 nM)”.

Consider `C=CC(=O)Nc1cc(Nc2nccc(-c3c4n(c5ccccc35)CC(OC)CC4)n2)c(OC)cc1N(C)CCN(C)C` (stereo not shown) [Example 7, N-(2-((2-(dimethylamino)ethyl)(methyl)amino)-4-methoxy-5-((4-(7-methoxy-6,7,8,9-tetrahydropyrido[1,2-a]indol-10-yl)pyrimidin-2-yl)amino)phenyl)acrylamide], for which the “EGFR exon 19 deletion and T790M mutation IC50” value in assay [1] is listed as “A (Group A compounds have an IC50 value for the indicated mutant below about 100 nM)”.

As to `C=CC(=O)Nc1cc(Nc2nccc(-n3c4c(c5ccccc53)CC(O)CC4)n2)c(OC)cc1N(C)CCN(C)C` (stereo not shown) [Example 10, N-(2-((2-(dimethylamino)ethyl)(methyl)amino)-5-((4-(3-hydroxy-1,2,3,4-tetrahydro-9H-carbazol-9-yl)pyrimidin-2-yl)amino)-4-methoxyphenyl)acrylamide], the “EGFR exon 19 deletion and T790M mutation IC50” value in assay [1] was “A (Group A compounds have an IC50 value for the indicated mutant below about 100 nM)”.

The IC50 is the concentration that inhibits the measured activity by half.
